Source: PMC11439681, “The identification of potent dual-target monopolar spindle 1 (MPS1) and histone deacetylase 8 (HDAC8) inhibitors through pharmacophore modeling, molecular docking, molecular dynamics simulations, and biological evaluation” (Frontiers in Pharmacology, 2024)

How the values were obtained:
MPS1 = biological target: T1, MPS1 (Homo sapiens, UniProt P33981); experiment: In vitro MPS1 inhibitory assay; type: biochemical
T1 construct: purchased Abcam
T1 sequence (P33981 1-857): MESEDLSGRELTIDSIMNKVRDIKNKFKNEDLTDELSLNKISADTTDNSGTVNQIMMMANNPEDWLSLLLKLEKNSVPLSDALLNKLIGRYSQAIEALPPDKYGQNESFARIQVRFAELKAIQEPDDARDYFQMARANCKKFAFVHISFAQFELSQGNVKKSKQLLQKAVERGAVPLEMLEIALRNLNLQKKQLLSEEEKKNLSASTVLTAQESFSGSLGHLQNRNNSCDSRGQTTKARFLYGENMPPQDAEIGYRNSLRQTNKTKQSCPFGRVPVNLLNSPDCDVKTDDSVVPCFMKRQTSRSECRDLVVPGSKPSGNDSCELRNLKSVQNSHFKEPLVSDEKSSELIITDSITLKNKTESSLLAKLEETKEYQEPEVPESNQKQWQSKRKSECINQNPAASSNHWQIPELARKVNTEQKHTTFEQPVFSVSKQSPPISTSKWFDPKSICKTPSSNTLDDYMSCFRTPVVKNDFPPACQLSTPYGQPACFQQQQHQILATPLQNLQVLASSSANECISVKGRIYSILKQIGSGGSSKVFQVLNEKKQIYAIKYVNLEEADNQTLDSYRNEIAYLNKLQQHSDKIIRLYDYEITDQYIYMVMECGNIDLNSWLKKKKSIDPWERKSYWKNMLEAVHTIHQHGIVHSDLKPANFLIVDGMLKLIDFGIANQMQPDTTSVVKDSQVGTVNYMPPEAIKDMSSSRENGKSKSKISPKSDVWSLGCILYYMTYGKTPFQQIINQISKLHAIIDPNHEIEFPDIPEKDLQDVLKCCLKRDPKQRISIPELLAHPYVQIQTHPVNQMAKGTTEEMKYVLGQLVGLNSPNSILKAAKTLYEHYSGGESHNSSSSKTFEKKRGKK
Procedure: The methodology is as previously described ([Naud et al., 2013]). In brief, the experiment was conducted using 384-well black low-volume plates, which were loaded with MPS1 (concentration range of 3–12.5 nM), 5 μM fluorescence-labelled peptide (sequence: 5FAM-[…]-CONH2), 10 μM ATP, 1% (v/v) DMSO or the test compound (concentrations in 1% (v/v) DMSO ranged from 0.25 to 100 μM), and assay buffer. […]. The plate was read on a Caliper EZ reader II (PerkinElmer Life Sciences, Waltham, MA, United States). […]

HepG2 liver cancer cells = experiment: MTT cytotoxicity assay, HepG2; type: cell-based; conditions: Homo sapiens, 72 h cell treatment
Procedure: The cells (5 × 10^4 cells/well) were incubated overnight in 96-well plates. A series of solutions containing varying concentrations of inhibitors were added and incubated at 37°C for a period of 72 h. Subsequently, the culture medium was removed, followed by a subsequent incubation of the cells with a 5 mg/mL MTT stock solution for 4 h. After centrifugation, the precipitate was solubilized in DMSO and gently shaken for 15 min. Finally, the absorbance measurement at 570 nm was completed using a microplate reader. Data analysis was performed using GraphPad Prism 6.0 software.

HDAC8 = biological target: T2, HDAC8 (Homo sapiens, UniProt Q9BY41); experiment: In vitro HDAC8 inhibitory assay; type: biochemical; conditions: 90 min at 37°C
T2 construct: purchased Abcam
T2 sequence (Q9BY41 1-377): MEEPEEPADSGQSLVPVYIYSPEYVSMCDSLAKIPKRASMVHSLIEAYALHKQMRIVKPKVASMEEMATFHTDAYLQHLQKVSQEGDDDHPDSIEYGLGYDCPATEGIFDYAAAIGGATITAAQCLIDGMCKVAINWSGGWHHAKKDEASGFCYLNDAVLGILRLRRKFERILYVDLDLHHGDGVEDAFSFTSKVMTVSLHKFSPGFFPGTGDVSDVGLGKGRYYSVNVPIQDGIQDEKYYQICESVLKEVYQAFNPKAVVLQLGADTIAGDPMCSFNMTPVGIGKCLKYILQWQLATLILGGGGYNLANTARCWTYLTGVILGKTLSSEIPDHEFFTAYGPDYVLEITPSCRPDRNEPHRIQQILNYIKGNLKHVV
Procedure: Inhibition of HDAC8 was determined in 96-well plates. […] The assessment of fluorescence intensity was executed at 390 nm and 460 nm via a microplate reader.

SMILES | MPS1 (IC50, nM) (MPS1; 10 μM ATP, 60 min, room temperature) | IC50 (HepG2 liver cancer cells) | IC50 (HDAC8) | IC50 (MPS1)
O=C(/C=C/c1cccc(S(=O)(=O)Nc2ccccc2)c1)NO [Belinostat, reference compound] | No inhibition | – | – | –
CC1=CC(c2cc3cnc(Nc4ccc(-c5cccc[n+]5/C=C/C(=O)NO)cc4Cl)cc3n2C(=O)OC(F)(F)F)C=N1 (stereo not shown) [MPH-1] | – | 0.47 µM | 0.0175 ± 0.00232 µM | 0.00938 ± 0.00041 µM
COc1cc(-c2cncn2/C=C/C(=O)NO)ccc1Nc1cc2c(cn1)cc(C1C=CN=C1)n2C(=O)OC(C)(C)C (stereo not shown) [MPH-2] | – | 0.32 µM | 0.00815 ± 0.00058 µM | 0.0076 ± 0.00035 µM
Cc1ncc(-c2ccc(Nc3cc4c(cn3)cc(C3C=NC(C(F)(F)F)=C3)n4C(=O)OC(C)(C)C)cc2)n1/C=C/C(=O)NO (stereo not shown) [MPH-3] | – | 0.55 µM | 0.0152 ± 0.00194 µM | 0.0132 ± 0.00082 µM
COc1cc(-c2cnc(C)n2/C=C/C(=O)NO)ccc1Nc1cc2c(cn1)cc(C1C=CN=C1)n2C(=O)OC(F)(F)F (stereo not shown) [MPH-4] | – | 0.41 µM | 0.0135 ± 0.00061 µM | 0.0117 ± 0.00095 µM
CC(C)(C)OC(=O)n1c(-c2cn[nH]c2C(F)F)cc2cnc(Nc3ccc(-c4cnc(C(F)(F)F)n4/C=C/C(=O)NO)cc3Cl)cc21 [MPH-6] | – | 0.53 µM | 0.0166 ± 0.00206 µM | 0.0108 ± 0.00069 µM
